≈ marks a conversion by molar mass, not a printed value. Like-named read-outs stand apart in the source and are kept apart here.
Tests used:
[1] = test system: M. smegmatis DSM 43465 (ATCC 607); experiment: Microplate Alamar Blue Assay (MABA) microdilution, M. smegmatis; type: cell-based, Mycobacterium smegmatis
[2] = test system: Mtb H37Ra ITM-M006710 (ATCC 9431); experiment: Microplate Alamar Blue Assay (MABA) microdilution, Mtb H37Ra; type: cell-based, Mycobacterium tuberculosis; conditions: for MIC: Mycobacterium tuberculosis
[3] = test system: Mycobacterium aurum DSM 43999 (ATCC 23366); experiment: Microplate Alamar Blue Assay (MABA) microdilution, M. aurum; type: cell-based
[4] = test system: Klebsiella pneumoniae CCM 4415 (ATCC 10031); experiment: Antibacterial microdilution broth method, KP; conditions: for MIC KP: read after 24 h of incubation; for MIC: Klebsiella pneumoniae
[5] = test system: Candida albicans CCM 8320 (ATCC 24433); experiment: Antifungal microdilution broth method, CA; type: cell-based
[6] = test system: Aspergillus flavus CCM 8363; experiment: Antifungal microdilution broth method, AFla; type: cell-based
Method: 6. In vitro antifungal activity screening
Antifungal activity evaluation was performed using a microdilution broth method according to EUCAST instructions (The European Committee on Antimicrobial Susceptibility Testing) with slight modifications. Eight fungal strains (four yeast and four mould strains) were used for antifungal […]
and Trichophyton interdigitale CCM 8377 (ATCC 9533). Tested strains were purchased from the Czech Collection of Microorganisms (CCM, Brno, Czech Republic) or from the American Type Collection Cultures (ATCC, Manassas, VA, USA). Tested compounds were dissolved in DMSO and diluted in a twofold manner with RPMI 1640 medium, with glutamine and 2% glucose, buffered to pH 7.0 with MOPS (3-morpholinopropane-1-sulfonic acid). The final concentration of DMSO in the testing […]
Static incubation was performed in the dark and in humid atmosphere, at 35±2 °C, for 24 and 48 h (72 and 120 h for Trichophyton interdigitale respectively). Positive controls consisted of test microbe solely, while negative controls consisted of cultivation medium and DMSO. Visual inspection and metabolic activity indicator, Alamar Blue (ThermoFisher Scientific), were used for MIC endpoint evaluation. The internal quality standards, amphotericin B (Sigma-Aldrich) and voriconazole (Toronto research Chemicals, CA) were involved in assays (for MIC of standards see Table S5). All experiments were conducted in duplicates.
For the results to be valid, the difference in MIC for one compound determined from two parallel measurements must not be greater than one step on the dilution scale.

[7] = test system: Candida krusei CCM 8271 (ATCC 6258); experiment: Antifungal microdilution broth method, CK; type: cell-based; conditions: Pichia kudriavzevii
[8] = test system: Lichtheimia corymbifera CCM 8077; experiment: Antifungal microdilution broth method, LC; type: cell-based
[9] = test system: Candida tropicalis CCM 8264 (ATCC 750); experiment: Antifungal microdilution broth method, CT; type: cell-based
[10] = test system: Trichophyton interdigitale CCM 8377 (ATCC 9533); experiment: Antifungal microdilution broth method, TI; type: cell-based
[11] = test system: Aspergillus fumigatus ATCC 204305; experiment: Antifungal microdilution broth method, AF; type: cell-based
[12] = test system: Staphylococcus epidermidis CCM 4418 (ATCC 12228); experiment: Antibacterial microdilution broth method, SE; type: cell-based; conditions: 24 h
[13] = test system: Candida parapsilosis CCM 8260 (ATCC 22019); experiment: Antifungal microdilution broth method, CP; type: cell-based; conditions: Lodderomyces parapsilosis
[14] = Mycolicibacterium smegmatis, pH 6; read-out: MIC M. smegmatis
[15] = Mycolicibacterium smegmatis, pH 6.6; read-out: MIC M. smegmatis
[16] = pH 6.6, read-out: MIC Mtb H37Ra
[17] = pH 6, calculated from µg/mL, read-out: MIC Mtb H37Ra
[18] = Mycolicibacterium aurum, pH 6; read-out: MIC M. aurum
[19] = Mycolicibacterium aurum, pH 6.6; read-out: MIC M. aurum
[20] = CCM8363, read after 48 h (filamentous fungi), read-out: MIC AFla
[21] = Mycolicibacterium smegmatis, pH 6, read-out: MIC M. smegmatis µg/mL
[22] = Mycolicibacterium smegmatis, pH 6.6, read-out: MIC M. smegmatis
[23] = CCM8077, 48 h, read-out: MIC LC
[24] = Mycolicibacterium aurum, pH 6, read-out: MIC M. aurum µg/mL
[25] = Mycolicibacterium aurum, pH 6.6, read-out: MIC M. aurum
[26] = ATCC204305, 48 h, read-out: MIC AF
[27] = internal quality control, 530 nm, inhibition of growth of 90%, 24 h (yeasts), read-out: MIC, spectrophotometric detection
[28] = internal quality control, naked eye, no visible growth, 24 h (yeasts), read-out: MIC, visual detection
[29] = CCM8363, internal quality control, naked eye, no visible growth, 48 h (moulds), read-out: MIC, visual detection
[30] = CCM8077, internal quality control, naked eye, no visible growth, 48 h (moulds), read-out: MIC, visual detection
[31] = internal quality control, naked eye, no visible growth, 48 h (moulds), read-out: MIC, visual detection
[32] = ATCC204305, internal quality control, naked eye, no visible growth, 48 h (moulds), read-out: MIC, visual detection
[33] = 24 h, read-out: MIC, spectrophotometric detection

SMILES	MIC ([2]; pH 6, read-out: MIC Mtb H37Ra)	MIC [2, 16]	MIC [2, 17]	MIC KP [4]	MIC ([5]; 24 h, read-out: MIC CA)	MIC [6, 20]	MIC ([7]; 24 h, read-out: MIC CK)	MIC [1, 21]	MIC [1, 22]	MIC [8, 23]	MIC ([2]; pH 6)	MIC [3, 24]	MIC [3, 25]	MIC ([9]; 24 h, read-out: MIC CT)	MIC ([10]; 48 h, read-out: MIC TI)	MIC [11, 26]	MIC ([12]; read-out: MIC SE)	MIC ([13]; 24 h, read-out: MIC CP)	also measured
O=C(O)c1cn(C2CC2)c2cc(N3CCNCC3)c(F)cc2c1=O [CPX, ciprofloxacin, reference compound]	0.25 µg/mL	0.125 to 0.25 µg/mL	0.75 µM																MIC [1, 14]: 0.0625 to 0.25 µg/mL (≈ 0.189 to 0.754 µM); MIC [1, 15]: 0.0625 to 0.125 µg/mL (≈ 0.189 to 0.377 µM); MIC [3, 18]: 0.0625 µg/mL (≈ 0.189 µM); MIC [3, 19]: 0.0078 to 0.0156 µg/mL (≈ 0.0235 to 0.0471 µM)
CCOC(=O)[C@@H](Cc1c[nH]c2ccccc12)NC(=O)c1cnccn1 [PC-D-Trp-Et, ethyl (pyrazine-2-carbonyl)-D-tryptophanate]	62.5 µg/mL	125 µg/mL	185 µM	> 500 µM	> 500 µM	> 500 µM	> 500 µM	250 µg/mL (≈ 739 µM)	250 µg/mL (≈ 739 µM)	> 500 µM	62.5 µg/mL	62.5 µg/mL (≈ 185 µM)	250 µg/mL (≈ 739 µM)	> 500 µM	> 500 µM	> 500 µM	> 500 µM	> 500 µM	
COC(=O)[C@H](C)NC(=O)c1cnccn1 (racemic) [PC-DL-Ala-Me, methyl (pyrazine-2-carbonyl)alaninate]	≥ 125 µg/mL	≥ 500 µg/mL	≥ 598 µM	> 500 µM	> 500 µM	> 500 µM	250 µM	≥ 125 µg/mL	≥ 500 µg/mL	> 500 µM	≥ 125 µg/mL	≥ 125 µg/mL	≥ 500 µg/mL	> 500 µM	> 500 µM	> 500 µM	> 500 µM	> 500 µM	
COC(=O)[C@H](CO)NC(=O)c1cnccn1 [PC-L-Ser-Me, methyl (pyrazine-2-carbonyl)-L-serinate]	≥ 500 µg/mL	≥ 500 µg/mL	≥ 2220 µM	> 500 µM	> 500 µM	> 500 µM	> 500 µM	≥ 500 µg/mL	≥ 500 µg/mL	> 500 µM	≥ 500 µg/mL	≥ 500 µg/mL	≥ 500 µg/mL	> 500 µM	> 500 µM	> 500 µM	> 500 µM	> 500 µM	
COC(=O)[C@H](NC(=O)c1cnccn1)[C@H](C)OC(C)(C)C [PC-D-OtBu-Thr-Me, methyl O-(tert-butyl)-N-(pyrazine-2-carbonyl)-D-threoninate]	62.5 µg/mL	≥ 500 µg/mL	212 µM	> 500 µM	> 500 µM	> 500 µM	> 500 µM	≥ 500 µg/mL	≥ 500 µg/mL	> 500 µM	62.5 µg/mL	≥ 500 µg/mL	≥ 500 µg/mL	> 500 µM	> 500 µM	> 500 µM	> 500 µM	> 500 µM	
CO[C@H]1/C=C/O[C@@]2(C)Oc3c(C)c(O)c4c(O)c(c(/C=N/N5CCN(C)CC5)c(O)c4c3C2=O)NC(=O)/C(C)=C\C=C\[C@H](C)[C@H](O)[C@@H](C)[C@@H](O)[C@@H](C)[C@H](OC(C)=O)[C@@H]1C [RIF, rifampicin, reference compound]	0.0016 to 0.0062 µg/mL	0.0039 to 0.0078 µg/mL	0.0019 to 0.0075 µM																MIC [1, 14]: 6.25 to 12.5 µg/mL (≈ 7.59 to 15.2 µM); MIC [1, 15]: 12.5 to 25 µg/mL (≈ 15.2 to 30.4 µM); MIC [3, 18]: 0.39 to 1.56 µg/mL (≈ 0.474 to 1.9 µM); MIC [3, 19]: 0.39 to 0.78 µg/mL (≈ 0.474 to 0.948 µM)
C[C@@H]1[C@H](O)[C@@H](C)/C=C/C=C/C=C/C=C/C=C/C=C/C=C/[C@H](O[C@@H]2O[C@H](C)[C@@H](O)[C@H](N)[C@@H]2O)C[C@@H]2O[C@](O)(C[C@@H](O)C[C@@H](O)[C@H](O)CC[C@@H](O)C[C@@H](O)CC(=O)O[C@H]1C)C[C@H](O)[C@H]2C(=O)O [amphotericin B, reference compound]																			MIC [5, 27]: 0.5 µg/mL; MIC [5, 28]: 0.5 µg/mL; MIC ([6]; CCM8363, internal quality control, 530 nm, inhibition of growth of 90%, 48 h (moulds), read-out: MIC, spectrophotometric detection): 4 µg/mL; MIC [6, 29]: 4 µg/mL; MIC [7, 27]: 0.5 µg/mL; MIC [7, 28]: 0.5 µg/mL; MIC ([8]; CCM8077, internal quality control, 530 nm, inhibition of growth of 90%, 48 h (moulds), read-out: MIC, spectrophotometric detection): 0.125 µg/mL; MIC [8, 30]: 0.125 µg/mL; MIC [9, 27]: 1 µg/mL; MIC [9, 28]: 1 µg/mL; MIC ([10]; internal quality control, 530 nm, inhibition of growth of 90%, 48 h (moulds), read-out: MIC, spectrophotometric detection): 1 µg/mL; MIC [10, 31]: 1 µg/mL; MIC ([11]; ATCC204305, internal quality control, 530 nm, inhibition of growth of 90%, 48 h (moulds), read-out: MIC, spectrophotometric detection): 1 µg/mL; MIC [11, 32]: 1 µg/mL; MIC [13, 27]: 0.5 µg/mL; MIC [13, 28]: 0.5 µg/mL
COC(=O)C(CC(C)C)NC(=O)c1cnc(Cl)cn1 (stereo not drawn)																			MIC Mtb H37Ra ([2]; pH 6): 3.91 µg/mL (≈ 13.7 µM); MIC Mtb H37Ra ([2]; pH 6.6): 62.5 µg/mL (≈ 219 µM)
C[C@@H](c1ncncc1F)[C@](O)(Cn1cncn1)c1ccc(F)cc1F [voriconazole, reference compound]																			MIC [5, 33]: 0.03 µg/mL; MIC [5, 28]: > 16 µg/mL; MIC ([6]; CCM8363, 48 h, read-out: MIC, spectrophotometric detection): 1 µg/mL; MIC [6, 29]: > 16 µg/mL; MIC [7, 33]: 0.25 µg/mL; MIC [7, 28]: > 16 µg/mL; MIC ([8]; CCM8077, 48 h, read-out: MIC, spectrophotometric detection): > 16 µg/mL; MIC [8, 30]: > 16 µg/mL; MIC [9, 33]: 0.0625 µg/mL; MIC [9, 28]: > 16 µg/mL; MIC ([10]; 48 h, read-out: MIC, spectrophotometric detection): > 16 µg/mL; MIC [10, 31]: > 16 µg/mL; MIC ([11]; ATCC204305, 48 h, read-out: MIC, spectrophotometric detection): 0.25 µg/mL; MIC [11, 32]: 1 µg/mL; MIC [13, 33]: 0.03 µg/mL; MIC [13, 28]: > 16 µg/mL
O=C(N[C@@H](CSCc1ccccc1)C(=O)O)c1cnccn1 [PC-L-SBn-Cys, S-benzyL-N-(pyrazine-2-carbonyl)-L-cysteine]	62.5 µg/mL	≥ 250 µg/mL	197 µM		> 250 µM	> 250 µM	> 250 µM	≥ 250 µg/mL	≥ 250 µg/mL	> 250 µM	62.5 µg/mL	125 µg/mL (≈ 394 µM)	≥ 250 µg/mL	> 250 µM	> 250 µM	> 250 µM	250 µM	> 250 µM	
CNC(C)C1CCC(N)C(OC2C(N)CC(N)C(OC3OCC(C)(O)C(NC)C3O)C2O)O1 (stereo not drawn) [gentamicin, reference compound]																			MIC ([4]; 24 h, read-out: MIC, visual detection): 0.5 µg/mL (≈ 1.05 µM); MIC ([4]; ATCC10031|CCM4415, 24 h, read-out: MIC, spectrophotometric detection): 0.5 µg/mL (≈ 1.05 µM); MIC ([12]; internal quality control, 530 nm, inhibition of growth of 95%, read-out: MIC, spectrophotometric detection): 0.125 µg/mL; MIC ([12]; internal quality control, naked eye, no visible growth, read-out: MIC, visual detection): 0.125 µg/mL

From PMC7181131, “N-Pyrazinoyl Substituted Amino Acids as Potential Antimycobacterial Agents—the Synthesis and Biological Evaluation of Enantiomers” (Molecules, 2020)
